Results on 24 molecules are retold here after patent US5397774A, “Pyrazolopyrimidine and pyrimidinyl bisphosphonic esters as anti-inflammatories” (The Upjohn Company, priority 1993, dated 1995).

The first test concerns DTH granuloma (DTH GRA) lesion in mBSA-sensitized mice. The test is described as follows: Delayed Type Hypersensitivity Granuloma Assay (DTH GRA) model for inflammation. The format is in vivo, mouse. The following applies: 216 h; Table 1, Formula 1 compounds; 10 mg/kg PO; mouse DTH granuloma excised after nine days. How it is done:
This assay is described by Dunn, C.
Briefly, mBSA-sensitized mice have a DTH granuloma (DTH GRA) lesion induced by subcutaneously implanting a mBSA-soaked filter which is excised after nine days. Compounds are administered to the mice to determine their effect on the lesions. The results are recorded as percent inhibition. […] Inhibition of 10 to 20% is considered to indicate anti-granuloma activity.
Again, as in Table 1, the results are recorded as percent inhibition. […] Inhibition of 10 to 20% is considered to indicate anti-granuloma activity. […]
As usually defined, the inhibition in vivo is the share of the control response that was lost under treatment. With `Cc1cc(CCC(P2(=O)OCC(C)(C)CO2)P2(=O)OCC(C)(C)CO2)n2nc(C)c(C#N)c2n1` [n, (3-(3-Cyano-2,5-dimethyl-pyrazolo(1,5-a)pyrimidin-7-yl)-propylidene)bis(5,5-dimethyl-2,2'-dioxide-1,3,2-dioxaphosphorinane)], the inhibition in vivo at 10 mg/kg came to 45%.

Staying with this test, now noted: 216 h; Table 2, Formula 2 compounds; 10 mg/kg PO; mouse DTH granuloma excised after nine days.
As to `Cn1c(CCC(P2(=O)OCC(C)(C)CO2)P2(=O)OCC(C)(C)CO2)nc(-c2cc(F)c(N3CCCCC3)c(F)c2F)cc1=O` [mm, (3-(2-(3-Methyl-4-oxo-6-(2,3,5-trifluoro-4-piperidinophenyl)-4(3H)-pyrimidinyl))-propylidine)bis(5,5-dimethyl-2,2'-dioxide-1,3,2-dioxaphosphorinane)], the inhibition in vivo at 10 mg/kg turned out to be 50%.

The same test, now with this note: Mus musculus, po, 216 h, Table 1, Formula 1 compounds; 10 mg/kg PO; mouse DTH granuloma excised after nine days.
Regarding `CCCCCCOc1cc2nc(C)cc(CCC(P(=O)(OCC)OCC)P(=O)(OCC)OCC)n2n1` [h, (3-(2-Hexyloxy-5-methyl-pyrazolo(1,5-a)pyrimidin-7-yl)propylidene)-bisphosphonic acid tetraethyl ester], the inhibition in vivo at 10 mg/kg came to 49%.

Take `CCOP(=O)(OCC)C(CCc1cc(C)nc2cc(OCc3ccccc3)nn12)P(=O)(OCC)OCC` [g, (3-(2-Benzyloxy-5-methyl-pyrazolo(1,5-a)pyrimidin-7-yl)-propylidene)bisphosphonic acid tetraethyl ester]: the inhibition in vivo at 10 mg/kg came to 44%. Take `CCOP(=O)(OCC)C(CCc1cc(C)nc2c(I)c(-c3ccccc3)nn12)P(=O)(OCC)OCC` [j, (3-(3-Iodo-5-methyl-2-phenyl-pyrazolo(1,5-a)pyrimidin-7-yl)-propylidene)bisphosphonic acid tetraethyl ester]: the inhibition in vivo at 10 mg/kg stood at 53%.

Turning to `CCOP(=O)(OCC)C(CCc1c(Cl)c(C)nc2c(C#N)c(C)nn12)P(=O)(OCC)OCC` [o, (3-(6-Chloro-3-cyano-2,5-dimethyl-pyrazolo(1,5-a)pyrimidin-7-yl)-propylidene)bisphosphonic acid tetraethyl ester], the inhibition in vivo at 10 mg/kg was determined as 53%. Still for that read-out and setting: the figure for `CCOP(=O)(OCC)C(CCc1cc(C)nc2c(Br)c(C)nn12)P(=O)(OCC)OCC` [d, (3-(3-Bromo-2,5-dimethyl-pyrazolo(1,5-a)pyrimidin-7-yl)-propylidene)bisphosphonic acid tetraethyl ester] is 44%. Still for that read-out and setting: under `CCOP(=O)(OCC)C(CCc1cc(C)nc2cc(OC(=O)c3ccccc3)nn12)P(=O)(OCC)OCC` [f, (3-(2-Benzoyloxy-5-methyl-pyrazolo(1,5-a)pyrimidin-7-yl)-propylidene)bisphosphonic acid tetraethyl ester] stands 41%.

Still in this test, the particulars now being: Mus musculus, po, 216 h, Table 1, Formula 1 compounds; PO; footnote a: tested at 50 mg/kg.
Regarding `CCOP(=O)(OCC)C(CCc1cc(C)nc2c(Br)c(-c3ccccc3)nn12)P(=O)(OCC)OCC` [l, (3-(3-Bromo-5-methyl-2-phenyl-pyrazolo(1,5-a)pyrimidin-7-yl)-propylidene)bisphosphonic acid tetraethyl ester], the inhibition in vivo at 50 mg/kg came out at 23%.

With `CCOP(=O)(OCC)C(CCc1cc(C)nc2c(Cl)c(-c3ccccc3)nn12)P(=O)(OCC)OCC` [k, (3-(3-Chloro-5-methyl-2-phenyl-pyrazolo(1,5-a)pyrimidin-7-yl)-propylidene)bisphosphonic acid tetraethyl ester], the inhibition in vivo at 50 mg/kg is 31%.

Still in this test, the particulars now being: Mus musculus, po, 216 h, Table 2, Formula 2 compounds; 10 mg/kg PO; mouse DTH granuloma excised after nine days.
For `CCOP(=O)(OCC)C(CCc1nc(-c2cccc(OC)c2)cc(=O)n1C)P(=O)(OCC)OCC` [w, (3-(2-(3-Methyl-4-oxo-6-(3-methoxy-phenyl)-4(3H)-pyrimidinyl))-propylidine) bisphosphonic acid tetraethyl ester], the inhibition in vivo at 10 mg/kg was determined as 13%. The same measure, in the same setting: under `CCOP(=O)(OCC)C(CCc1nc(-c2ccccc2)cc(=O)n1Cc1ccccc1)P(=O)(OCC)OCC` [r, (3-(2-(3-Benzyl-4-oxo-6-phenyl-4(3H)-pyrimidinyl))-propylidine)bisphosphonic acid tetraethyl ester] stands 17%; under `CCOP(=O)(OCC)C(CCc1nc(-c2cccc(C(F)(F)F)c2)cc(=O)n1C)P(=O)(OCC)OCC` [x, (3-(2-(3-Methyl-4-oxo-6-(3-trifluoromethyl-phenyl)-4(3H)-pyrimidinyl))propylidine)bisphosphonic acid tetraethyl ester], 6%.

On to `COP(=O)(OC)C(CCc1nc(-c2ccccc2)cc(=O)n1C)P(=O)(OC)OC` [z, (3-(2-(3-Methyl-4-oxo-6-phenyl-4(3H)-pyrimidinyl))-propylidine)bisphosphonic acid tetramethyl ester], for which the inhibition in vivo at 10 mg/kg was 36%.

Take `CCOP(=O)(OCC)C(CCc1nc(-c2cccc(F)c2)cc(=O)n1C)P(=O)(OCC)OCC` [s, (3-(2-(3-Methyl-4-oxo-6-(3-fluoro-phenyl)-4(3H)-pyrimidinyl))-propylidine)bisphosphonic acid tetraethyl ester]: the inhibition in vivo at 10 mg/kg was determined as 32%. Same read-out and setting: the figure for `CCOP(=O)(OCC)C(CCc1nc(-c2ccc(OC)cc2)cc(=O)n1C)P(=O)(OCC)OCC` [bb, (3-(2-(3-Methyl-4-oxo-6-(4-methoxyphenyl)-4(3H)-pyrimidinyl))-propylidine)bisphosphonic acid tetraethyl ester] is 22%; for `CCOP(=O)(OCC)C(CCc1nc(-c2ccccc2)cc(=O)n1C)P(=O)(OCC)OCC` [p, (3-(2-(3-Methyl-4-oxo-6-phenyl-4(3H)-pyrimidinyl))-propylidine)bisphosphonic acid tetraethyl ester] it is 60%.

For the molecule `CCOP(=O)(OCC)C(CCc1nc(-c2ccc(N(C)C)cc2)cc(=O)n1C)P(=O)(OCC)OCC` [cc, (3-(2-(3-Methyl-4-oxo-6-(4-dimethylaminophenyl)-4(3H)-pyrimidinyl))-propylidine)bisphosphonic acid tetraethyl ester], the inhibition in vivo at 10 mg/kg was determined as 63%. On to `CCOP(=O)(OCC)C(CCc1nc(-c2ccccc2)cc(=O)n1CC)P(=O)(OCC)OCC` [ii, (3-(2-(3-Ethyl-4-oxo-6-phenyl-4(3H)-pyrimidinyl))-propylidine)bisphosphonic acid tetraethyl ester], for which the inhibition in vivo at 10 mg/kg was determined as 12%. Same read-out and setting: the figure for `CCOP(=O)(OCC)C(CCc1nc(-c2ccccc2)c(Br)c(=O)n1C)P(=O)(OCC)OCC` [y, (3-(2-(3-Methyl-4-oxo-5-bromo-6-phenyl-4(3H)-pyrimidinyl))-propylidine)bisphosphonic acid tetraethyl ester] is 7%.

Still in this test, the particulars now being: Table 2, Formula 2 compounds; 10 mg/kg PO; mouse DTH granuloma excised after nine days.
A word on the % Inhibition: it is the change of the read-out against control, counted positive when it falls. As for “3-(7-Chloro-3-(2-fluoro-phenyl)-4(3H)-quinazolinone)-propylidine)bisphosphonic acid tetraethyl ester [qq]”, the “% Inhibition” value is listed as 29%. Same read-out and setting: under `CCOP(=O)(OCC)C(CCc1nc2cc(Cl)ccc2c(=O)n1C)P(=O)(OCC)OCC` [oo] stands 41%.

The test is the same for the next values; noted with them: Table 2, Formula 2 compounds; 10 mg/kg PO; mouse DTH granuloma excised after nine days; 10 mg/kg.
In the case of `CCOP(=O)(OCC)C(CCc1nc(-c2ccccc2)cc(=O)n1Cc1ccccc1)P(=O)(OCC)OCC` [gg, (3-(2-(3-Benzyl-4-oxo-6-phenyl-4(3H)-pyrimidinyl))-propylidine)bisphosphonic acid tetraethyl ester], the “% Inhibition” value came to 20%. Take `C=CCn1c(CCC(P(=O)(OCC)OCC)P(=O)(OCC)OCC)nc(-c2ccccc2)cc1=O` [hh, (3-(2-(3-Allyl-4-oxo-6-phenyl-4(3H)-pyrimidinyl))-propylidine)bisphosphonic acid tetraethyl ester]: the “% Inhibition” value stood at 11%.
